Results: the CheMixHub viscosity set
± gives the uncertainty stated by the source.

Assay: xn = mol fraction of the nth substance listed

ClC(Cl)C(Cl)Cl + CCCC(=O)OCC
viscosity [mPa·s], 101.3 kPa
Settings	308.15 K	318.15 K
x2 = 0.0477	1.326 ± 0.01	1.209 ± 0.009
x2 = 0.1018	1.243 ± 0.01	1.135 ± 0.009
x2 = 0.2004	1.11 ± 0.009	1.019 ± 0.008
x2 = 0.2603	1.04 ± 0.008	0.957 ± 0.008
x2 = 0.3965	0.906 ± 0.007	0.837 ± 0.007
x2 = 0.4979	0.824 ± 0.007	0.764 ± 0.006
x2 = 0.6073	0.753 ± 0.006	0.699 ± 0.006
x2 = 0.6955	0.701 ± 0.006	0.652 ± 0.006
x2 = 0.8023	0.649 ± 0.006	0.605 ± 0.005
x2 = 0.9007	0.61 ± 0.005	0.569 ± 0.005
x2 = 0.9705	0.585 ± 0.005	0.547 ± 0.005

COC(=O)OC + CCCCCC
Settings	viscosity [mPa·s]
298.15 K, 101 kPa, x1 = 0.0961	0.2912 ± 0.0037

COCCOCCOC + CCCCCC
viscosity [mPa·s], 101.33 kPa
Settings	x1 = 0.1017	x1 = 0.2006	x1 = 0.3006	x1 = 0.3974	x1 = 0.4983	x1 = 0.4984	x1 = 0.5986	x1 = 0.6954	x1 = 0.8011	x1 = 0.8957
298.15 K	0.326 ± 0.01	0.362 ± 0.011	0.407 ± 0.012	0.455 ± 0.013	–	0.52 ± 0.014	0.584 ± 0.016	0.662 ± 0.018	0.761 ± 0.02	0.868 ± 0.022
303.15 K	0.31 ± 0.01	0.344 ± 0.011	0.385 ± 0.011	0.43 ± 0.012	–	0.49 ± 0.014	0.548 ± 0.015	0.62 ± 0.017	0.71 ± 0.019	0.806 ± 0.021
308.15 K	0.294 ± 0.01	0.324 ± 0.01	0.362 ± 0.011	0.404 ± 0.012	0.461 ± 0.013	–	0.512 ± 0.014	0.576 ± 0.016	0.657 ± 0.017	0.75 ± 0.019
313.15 K	0.28 ± 0.009	0.308 ± 0.01	0.345 ± 0.011	0.383 ± 0.011	0.434 ± 0.013	–	0.482 ± 0.014	0.541 ± 0.015	0.616 ± 0.017	0.699 ± 0.018
318.15 K	0.268 ± 0.009	0.285 ± 0.009	0.326 ± 0.01	0.363 ± 0.011	0.41 ± 0.012	–	0.457 ± 0.013	0.511 ± 0.014	0.579 ± 0.016	0.657 ± 0.017

ClC(Cl)C(Cl)Cl + CCCCCC
303.15 K, 101 kPa
Settings	viscosity [mPa·s]
x1 = 0.115	0.316 ± 0.004
x1 = 0.2303	0.363 ± 0.004
x1 = 0.2991	0.411 ± 0.004
x1 = 0.4277	0.516 ± 0.005
x1 = 0.5521	0.633 ± 0.006
x1 = 0.6234	0.71 ± 0.007
x1 = 0.7182	0.83 ± 0.008
x1 = 0.8039	0.966 ± 0.009
x1 = 0.8856	1.133 ± 0.011
x1 = 0.9344	1.256 ± 0.012

COCCOCCOC + CCCCCCC
viscosity [mPa·s], 101.33 kPa
Settings	x1 = 0.0978	x1 = 0.197	x1 = 0.2958	x1 = 0.3834	x1 = 0.4946	x1 = 0.594	x1 = 0.6956	x1 = 0.7955	x1 = 0.8992
298.15 K	0.407 ± 0.012	0.436 ± 0.013	0.471 ± 0.013	0.508 ± 0.014	0.562 ± 0.015	0.619 ± 0.017	0.689 ± 0.018	0.768 ± 0.02	0.871 ± 0.022
303.15 K	0.386 ± 0.012	0.412 ± 0.012	0.444 ± 0.013	0.478 ± 0.014	0.527 ± 0.015	0.58 ± 0.016	0.643 ± 0.017	0.714 ± 0.019	0.807 ± 0.021
308.15 K	0.367 ± 0.011	0.39 ± 0.012	0.421 ± 0.012	0.451 ± 0.013	0.5 ± 0.014	0.545 ± 0.015	0.602 ± 0.016	0.668 ± 0.018	0.751 ± 0.019
313.15 K	0.351 ± 0.011	0.371 ± 0.011	0.398 ± 0.012	0.426 ± 0.012	0.468 ± 0.013	0.513 ± 0.014	0.566 ± 0.015	0.627 ± 0.017	0.7 ± 0.018
318.15 K	0.333 ± 0.01	0.354 ± 0.011	0.378 ± 0.011	0.404 ± 0.012	0.443 ± 0.013	0.484 ± 0.014	0.532 ± 0.015	0.587 ± 0.016	0.656 ± 0.017
